Measured values taken from patent US20240246931A1, “COMPOUNDS AS PD1/PD-L1 INHIBITORS AND METHODS THEREOF” (JUBILANT PRODEL LLC, priority 2021, published 2024).
Like-named read-outs stand apart in the source and are kept apart here.

Columns and labels:
[1] = Metabolic stability in mouse liver microsomes; type: in vitro ADME; details: mouse liver microsomes 1.0 mg/mL, compound 1 μM, NADPH, second number of HLM/MLM cell
Excerpt: (§1) Metabolic Stability in Liver Microsomes
(§2) The purpose of this experiment is to measure the metabolic half-life of NCEs in sub-cellular fractions such as human liver microsomes (HLM) or mouse liver microsomes (MLM). This provides an in vitro means to calculate intrinsic hepatic clearance, and to support the prediction of human pharmacokinetics. This approach has been successfully utilized at early phase of drug discovery projects, to provide SAR input for reducing metabolic instability and for predicting in vivo hepatic clearance.
(§3) Procedure: Potassium phosphate buffer (66.7 mM, pH 7.4) containing liver microsomes (mouse and human) (1.0 mg/mL) was pre-incubated separately with compound (1 μM) and positive control (verapamil, 1 μM) in a 37° C. water bath for 5 min. The reactions were initiated by adding 20 μL of 10 mM NADPH. Reactions without NADPH (0 and 30 min) were also incubated to rule out non-NADPH metabolism or chemical instability in the incubation buffer. All reactions were terminated using 200 μL of ice-cold acetonitrile containing internal standard at 0, 5, 15 and 30 min. The vials were centrifuged at 3000 rpm for 15 min. The supernatants thus obtained were analyzed on LC-MS/MS to monitor the disappearance of test compound.

[2] = Metabolic stability in human liver microsomes; type: in vitro ADME; details: human liver microsomes 1.0 mg/mL, compound 1 μM, NADPH, first number of HLM/MLM cell
Excerpt: as §1, §2, §3

[3] = target: T1, PD-1/PD-L1 interaction (Homo sapiens, UniProt Q9NZQ7); assay: PD-1/PD-L1 HTRF binding assay (CisBio kit); details: HTRF PD1/PD-L1 inhibition assay
T1 construct: purchased CisBio 63ADK000CPAPEG
T1 sequence (Q9NZQ7 19-238 limits assumed): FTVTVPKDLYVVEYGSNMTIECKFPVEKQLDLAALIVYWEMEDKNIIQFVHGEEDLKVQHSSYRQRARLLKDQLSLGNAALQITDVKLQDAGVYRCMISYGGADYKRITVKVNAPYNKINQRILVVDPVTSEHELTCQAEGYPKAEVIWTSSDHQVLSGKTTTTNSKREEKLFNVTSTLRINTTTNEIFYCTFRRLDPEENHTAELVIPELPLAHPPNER
In short: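 HTRF kit assay: compound was preincubated 15 min with tagged PD-L1 and PD-1 proteins, then Eu-cryptate and XL665 anti-tag antibodies were added for 1 h at room temperature. Readout was the 665/620 nm ratio ×10^4. IC50 was binned as A <100 nM, B 100–500 nM, C >500 nM.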

[4] = Brain exposure study in mice by IV route; type: in vivo; details: male, Balb/c, mouse; for Kp at 0.5 h: brain/plasma, read-out: Brain/Plasma ratio
Excerpt: Institutional Animal Ethical Committee (IAEC) of Jubilant Biosys (IAEC/JDC/2019/188R (for Mice) and IAEC/JDC/2019/189R (for Rat) nominated by CPCSEA (Committee for the Purpose of Control and Supervision of Experiments on Animals) approved the mice and rat pharmacokinetic experiments. Male Balb/c mice (˜6-8 weeks old with body weight range of 22-25 g) and male SD rats (6-8 weeks old with body weight range of 200-250 g) were procured from Vivo Biotech, Hyderabad, India. Animals were quarantined in Jubilant Biosys Animal House for a period of 7 days with a 12:12 h light: dark cycles, and prior to the study the animals were stratified as per body weight.
Procedure for Mice: Intravenous pharmacokinetics study was done at doses of 5, 10 mg/kg respectively at dose volume 5 mL/kg for IV route. Sparse sampling was done and at each time point three mice were used for blood sampling (˜100 μL) were collected from retro-orbital plexus at 0.083 (Only for IV) and 24 h. Blood samples collected in tubes containing K2 EDTA as anticoagulant and centrifuged for 5 min at 10,000 rpm in a refrigerated centrifuge (Biofuge, Heraeus, Germany) maintained at 4° C. for plasma separation. Group I (IV) received compound by intravenously by tail vein at […] in solution formulation. Blood concentration-time data of compound was analyzed by non-compartmental method using Phoenix WinNonlin Version 8.1.
Brain Exposure Study in Mice
The mice were placed in isoflurane anesthesia chamber; following complete anesthesia (3-5% isoflurane) blood sample (0.5 mL) was collected from retro-orbital plexus using mice capillary.
The mice were sacrificed by cervical dislocation. The dorsal surface of the skull was peeled away from the brain using bone cutter, dura matter was gently removed from surface of brain with help of forceps. Brain was gently taken out away from the head and placed in PBS buffer to remove blood. Brain was placed on blotting paper to remove the blood spots and transferred in pre-labelled tube. The isolated brain was weighed and homogenised using 5× volume of phosphate buffer saline (pH-7.4). During homogenization the brain homogenate was kept in ice till sample processing. The homogenate was processed by specified extraction process and analyzed by LC-MS/MS.
Evaluation of Brain Exposure Data by IV Route

MLM % remaining @ 30 min [1] | HLM % remaining @ 30 min [2] | IC50 [3] [nM] | concentration at 0.5 h ([4]; brain, 10 mg/kg, 10 mpk, read-out: Brain (ng/g) Mean) [ng/g] | Kp at 0.5 h ([4]; 10 mg/kg, 10 mpk) | concentration at 0.5 h ([4]; plasma, 10 mg/kg, 10 mpk, read-out: Plasma (ng/mL) Mean) [ng/mL] | SMILES | concentration at 0.5 h ([4]; brain, 5 mg/kg, 5 mpk, read-out: Brain (ng/g) Mean) [ng/g] | Kp at 0.5 h ([4]; 5 mg/kg, 5 mpk) | concentration at 0.5 h ([4]; plasma, 5 mg/kg, 5 mpk, read-out: Plasma (ng/mL) Mean) [ng/mL]
25% | 27% | < 100 |  |  |  | N#Cc1c(COc2cc(OCC(F)(F)F)c(CN3CCCC[C@H]3CO)c3c2CCC3)cccc1-c1ccccc1 [Example 23, (S)-3-(((7-((2-(hydroxymethyl)piperidin-1-yl)methyl)-6-(2,2,2-trifluoroethoxy)-2,3-dihydro-1H-inden-4-yl)oxy)methyl)-[1,1′-biphenyl]-2-carbonitrile] |  |  | 
71% | 56% | < 100 |  |  |  | N#Cc1c(COc2cc(OCCF)c(CN3CCCC[C@H]3CO)c3c2CCC3)cccc1-c1ccccc1 [Example 29, (S)-3-(((6-(2-fluoroethoxy)-7-((2-(hydroxymethyl)piperidin-1-yl)methyl)-2,3-dihydro-1H-inden-4-yl)oxy)methyl)-[1,1′-biphenyl]-2-carbonitrile] |  |  | 
84% | 81% | < 100 |  |  |  | Cc1c(COc2cc(OCCCF)c(CN3CCCC[C@H]3CO)c3c2CCC3)cccc1-c1ccccc1 [Example 32, (S)-(1-((5-(3-fluoropropoxy)-7-((2-methyl-[1,1′-biphenyl]-3-yl)methoxy)-2,3-dihydro-1H-inden-4-yl)methyl)piperidin-2-yl)methanol] |  |  | 
84% | 78% | < 100 |  |  |  | Cc1c(COc2cc(OCc3cccc(C(N)=O)c3)c(CN3CCC[C@H]3CO)c3c2CCC3)cccc1-c1ccccc1 [Example 38, (S)-3-(((4-((2-(hydroxymethyl)pyrrolidin-1-yl)methyl)-7-((2-methyl-[1,1′-biphenyl]-3-yl)methoxy)-2,3-dihydro-1H-inden-5-yl)oxy)methyl)benzamide] |  |  | 
15% | 33% | < 100 |  |  |  | Cc1c(COc2cc(OCc3cc(C#N)c[n+]([O-])c3)c(CN3CCC[C@H]3CO)c3c2CCC3)cccc1-c1ccccc1 [Example 44, (S)-3-cyano-5-(((4-((2-(hydroxymethyl)pyrrolidin-1-yl)methyl)-7-((2-methyl-[1,1′-biphenyl]-3-yl)methoxy)-2,3-dihydro-1H-inden-5-yl)oxy)methyl)pyridine 1-oxide] |  |  | 

The remaining lines, values behind:

SMILES | MLM % remaining @ 30 min [1] | HLM % remaining @ 30 min [2] | IC50 [3] [nM] | concentration at 0.5 h ([4]; brain, 10 mg/kg, 10 mpk, read-out: Brain (ng/g) Mean) [ng/g] | Kp at 0.5 h ([4]; 10 mg/kg, 10 mpk) | concentration at 0.5 h ([4]; plasma, 10 mg/kg, 10 mpk, read-out: Plasma (ng/mL) Mean) [ng/mL] | concentration at 0.5 h ([4]; brain, 5 mg/kg, 5 mpk, read-out: Brain (ng/g) Mean) [ng/g] | Kp at 0.5 h ([4]; 5 mg/kg, 5 mpk) | concentration at 0.5 h ([4]; plasma, 5 mg/kg, 5 mpk, read-out: Plasma (ng/mL) Mean) [ng/mL]
Cc1c(COc2cc(OCC(F)(F)F)c(CN3CCCC[C@H]3CO)c3c2CCC3)cccc1-c1ccccc1 [Example 24, (S)-(1-((7-((2-methyl-[1,1′-biphenyl]-3-yl)methoxy)-5-(2,2,2-trifluoroethoxy)-2,3-dihydro-1H-inden-4-yl)methyl)piperidin-2-yl)methanol] | 67% | 72% | < 100 |  |  |  |  |  | 
Cc1c(COc2cc(OCc3cncc(C#N)c3)c(CN3CC4(CC4)C[C@H]3CO)c3c2CCC3)cccc1-c1ccccc1 [Example 25, (S)-5-(((4-((6-(hydroxymethyl)-5-azaspiro[2.4]heptan-5-yl)methyl)-7-((2-methyl-[1,1′-biphenyl]-3-yl)methoxy)-2,3-dihydro-1H-inden-5-yl)oxy)methyl)nicotinonitrile] | 61% | 45% | < 100 |  |  |  |  |  | 
N#Cc1cncc(COc2cc(OCc3cccc(-c4ccccc4)c3C#N)c3c(c2CN2CC4(CC4)C[C@H]2CO)CCC3)c1 [Example 26, (S)-5-(((7-((2-cyano-[1,1′-biphenyl]-3-yl)methoxy)-4-((6-(hydroxymethyl)-5-azaspiro[2.4]heptan-5-yl)methyl)-2,3-dihydro-1H-inden-5-yl)oxy)methyl)nicotinonitrile] | 5% | 6% | < 100 |  |  |  |  |  | 
Cc1c(COc2cc(OCCF)c(CN3CCCC[C@H]3CO)c3c2CCC3)cccc1-c1ccccc1 [Example 27, (S)-(1-((5-(2-fluoroethoxy)-7-((2-methyl-[1,1′-biphenyl]-3-yl)methoxy)-2,3-dihydro-1H-inden-4-yl)methyl)piperidin-2-yl)methanol] | 84% | 91% | < 100 | 11600 | 12.2 | 949 |  |  | 
Cc1c(COc2cc(OCCF)c(CN3CCC[C@H]3CO)c3c2CCC3)cccc1-c1ccccc1 [Example 28, (S)-(1-((5-(2-fluoroethoxy)-7-((2-methyl-[1,1′-biphenyl]-3-yl)methoxy)-2,3-dihydro-1H-inden-4-yl)methyl)pyrrolidin-2-yl)methanol] | 82% | 74% | < 100 |  |  |  |  |  | 
Cc1c(COc2cc(OCCCCCF)c(CN3CCCC[C@H]3CO)c3c2CCC3)cccc1-c1ccccc1 [Example 30, (S)-(1-((5-((5-fluoropentyl)oxy)-7-((2-methyl-[1,1′-biphenyl]-3-yl)methoxy)-2,3-dihydro-1H-inden-4-yl)methyl)piperidin-2-yl)methanol] | 74% | 57% | < 100 |  |  |  |  |  | 
Cc1c(COc2cc(OCCCCF)c(CN3CCCC[C@H]3CO)c3c2CCC3)cccc1-c1ccccc1 [Example 31, (S)-(1-((5-(4-fluorobutoxy)-7-((2-methyl-[1,1′-biphenyl]-3-yl)methoxy)-2,3-dihydro-1H-inden-4-yl)methyl)piperidin-2-yl)methanol] | 79% | 65% | < 100 |  |  |  | 2450 | 4.9 | 501
Cc1c(COc2cc(OCc3cccc(C#N)c3)c(CN3CCCC4CC43CO)c3c2CCC3)cccc1-c1ccccc1 (stereo not drawn) [Example 34, 3-(((4-((1-(hydroxymethyl)-2-azabicyclo[4.1.0]heptan-2-yl)methyl)-7-((2-methyl-[1,1′-biphenyl]-3-yl)methoxy)-2,3-dihydro-1H-inden-5-yl)oxy)methyl)benzonitrile] | 5% | 8% | < 100 |  |  |  |  |  | 
Cc1c(COc2cc(OCc3cncc(C#N)c3)c(CN3CCCC4CC43CO)c3c2CCC3)cccc1-c1ccccc1 (stereo not drawn) [Example 35, 5-(((4-((1-(hydroxymethyl)-2-azabicyclo[4.1.0]heptan-2-yl)methyl)-7-((2-methyl-[1,1′-biphenyl]-3-yl)methoxy)-2,3-dihydro-1H-inden-5-yl)oxy)methyl)nicotinonitrile] | 3/3% | 3/3% | < 100 |  |  |  |  |  | 
Cc1c(COc2cc(OCc3cncc(C(N)=O)c3)c(CN3CCCC[C@H]3CO)c3c2CCC3)cccc1-c1ccccc1 [Example 37, (S)-5-(((4-((2-(hydroxymethyl)piperidin-1-yl)methyl)-7-((2-methyl-[1,1′-biphenyl]-3-yl)methoxy)-2,3-dihydro-1H-inden-5-yl)oxy)methyl)nicotinamide] | 88% | 86% | < 100 |  |  |  |  |  | 
